# Test results: patent publication US12290521B2, “Methods and materials for identifying and treating BET inhibitor-resistant cancers” (Mayo Foundation for Medical Education and Research, priority 2018, dated 2025)
# Residues, ends and D or L forms follow the SMILES beside them. *: point of attachment. Cbz = O=C(OCc1ccccc1)*
# Key:
# [1] = test system: BRD2/3/4; assay: Western blot and RT-qPCR of BRD2/3/4 in LNCaP cells; format: cell-based; settings: 8 hours, MLN4924 200 nM, Bortezomib 200 nM, MG132 20 μM
# Description: (§1) Cell lysates or immunoprecipitates were subjected to SDS-PAGE, and proteins were transferred to nitrocellulose membranes (GE Healthcare Sciences). The membranes were blocked in Tris-buffered saline (TBS, pH 7.4) containing 5% non-fat milk and 0.1% Tween-20, washed twice in TBS containing 0.1% Tween-20, and incubated with primary antibody overnight at 4° C., followed by secondary antibody for 1 hour at room temperature. The proteins of interest were visualized using ECL chemiluminescence system (Santa Cruz Biotechnology). Densitometry analysis of protein bands was analyzed on the Gel-Pro Analyzer software.
# (§2) Total RNA was isolated from transiently transfected cells using the Trizol reagent (Thermo Fisher Scientific), and cDNA was reverse-transcribed using the Superscript RT kit (TOYOBO, Japan) according to the manufacturer's instructions. PCR amplification was performed using the SYBR Green PCR master mix Kit (TOYOBO, Japan). All quantization was normalized to the level of endogenous control GAPDH. The primer sequences for the SYBR green qPCR used were as follows: BRD2-F: 5′-[…]-3′ (SEQ ID NO:10); BRD2-R: 5′-[…]-3′ (SEQ ID NO:11); BRD3-F: 5′-[…]-3′ (SEQ ID NO:12); BRD3-R: 5′-[…]-[…]-3′ (SEQ ID NO:13); BRD4-F: 5′-[…]-GAG-3′ (SEQ ID NO:14); BRD4-F: 5′-[…]-3′ (SEQ ID NO: 15); RAC1-F: 5′-[…]-3′ (SEQ ID NO:16); RAC1-R: 5′-[…]-3′ (SEQ ID NO:17); FDFT1-F: 5′-ACTAT-[…]-3′ (SEQ ID NO:18); FDFT1-R: 5′-[…]-[…]-3′ (SEQ ID NO:19); DHCR24-F: 5′-[…]-GAGC-3′ (SEQ ID NO:20); DHCR24-R: 5′-[…]-3′(SEQ ID NO:21); DHCR7-F: 5′-[…]-3′ (SEQ ID NO: 22); DHCR7-R: 5′-[…]-3′ (SEQ ID NO:23); MVD-F: 5′-[…]-3′ (SEQ ID NO:24); MVD-R: 5′-CACAC-[…]-3′ (SEQ ID NO:25); PSA-F: 5′-[…]-[…]-3′ (SEQ ID NO:26); PSA-R: 5′-[…]-3′ (SEQ ID NO:27); TMPRSS2-F: 5′-[…]-3′ (SEQ ID NO: 28); TMPRSS2-R: 5′-[…]-3′ (SEQ ID NO:29); MYC-F: 5′-[…]-3′ (SEQ ID NO:30); MYC-R: 5′-CTTGT-[…]-3′ (SEQ ID NO:31); AR-F: 5′-[…]-TCACC-3′ (SEQ ID NO:32); AR-R: 5′-[…]-3′ (SEQ ID NO: 33); GAPDH-F: 5′-[…]-3′ (SEQ ID NO:34); and GAPDH-R: 5′-[…]-3′ (SEQ ID NO:35).
# [2] = test system: C4-2 cells; assay: Cell proliferation assay (MTS) and trypan blue assay; format: cell-based, human; settings: SPOP-F133V C4-2 cells; GDC-0068 0.2 μM with JQ1 0.25 μM, 5 days
# Description: CellTiter 96® AQueous One Solution Cell Proliferation Assay (MTS) (Promega) was used to measure cell growth according to the manufacturer's instructions. Briefly, cells were plated in 96-well plates at a density of 2,000 cells per well. At the indicated times, 20 μL of Cell Titer 96R Aqueous One Solution Reagent was added to medium. After incubating for 1 hour at 37° C. in the cell incubator, cell growth was measured in a microplate reader at 490 nm.
# Trypan blue assay was performed to measure cell growth according to the manufacturer's instructions. Briefly, cells were plated in 6-well plates at a density of about 5×10^4 to about 1×10^5 cells per well. At the indicated time points, cells were trypsinized and suspended in 1 mL 1×PBS. 100 μL cells and 100 μL trypan blue solution (Sigma-Aldrich) were mixed, and the number of viable cells was measured using the Bio-Rad automated cell counter.
# Cell proliferation was measured by using the MTS assay (Promega). Prostate cancer cells (2,000 per well) were seeded in 96-well plates with 100 μL of culture medium. Each well was added with 20 μL of CellTiter 96R AQueous One Solution Reagent (Promega) and absorbance was measured in a microplate reader at 490 nm.
# [3] = test system: C4-2 cells; assay: Western blot and RT-qPCR of protein and mRNA expression in C4-2 cells; format: cell-based, human; settings: 24 hours
# Description: as §1, §2
# (§3) Cells were harvested and lysed by IP buffer (50 mM Tris-HCl, pH 7.4, 150 mM NaCl, 1% Triton X-100, 1% sodium deoxycholate and 1% protease inhibitor cocktails) on ice for more than 15 minutes. Cell lysate was centrifuged for 15 minutes at 13,000 rpm at 4° C., and the supernatant was quantified by BCA protein quantification assay. Equal amounts of protein sample were added into 4× sample buffer and boiled for 5 minutes. The sample was subjected to SDS-PAGE analysis and transferred to nitrocellulose membrane. The membrane was blocked by 5% milk for 1 hour at room temperature and incubated with primary antibody at 4° C. overnight. The next day, the membrane was washed three times with 1×TBST and incubated with horseradish peroxidase-conjugated secondary antibodies for 1 hour at room temperature. The protein bands were visualized by SuperSignal West Pico Stable Peroxide Solution (Thermo Fisher Scientific).
# Total RNA was isolated using TRIzol reagent (Thermo Fisher Scientific). The NanoDrop 2000 spectrophotometer (Thermo Fisher Scientific) was used to assess RNA yield and quality. RNA was reversely transcribed using Superscript II reverse transcriptase (Thermo Fisher Scientific) following manufacturer's instructions. Quantitative real-time PCR was performed by mixing cDNA, gene-specific primers and IQ SYRB Green Supermix and detected by iCycler QTX detection system (Bio-Rad). The 2-ΔCt method was used to quantitate fold changes by normalizing to GAPDH.
# [4] = test system: solid tumors; settings: patients with solid tumors; cited from earlier work
# [5] = test system: C4-2 xenograft tumors; assay: Prostate cancer xenografts in NSG mice; format: in vivo; settings: SPOP-F133V C4-2 xenografts; GDC-0068 100 mg/kg with JQ1 50 mg/kg, 5 days a week, day 21
# Description: 6-week-old NOD-SCID IL-2-receptor gamma null (NSG) mice were generated and randomly divided into different experimental groups as indicated. All mice were housed in standard conditions with a 12-hour light/dark cycle and access to food and water ad libitum. For BRD2/3/4 knockdown studies, C4-2 cells (5×10^6), infected with lentivirus expressing empty vector (EV) or HA-SPOP-F133V mutant in combination with control shRNA or BRD2/3/4-specific shRNA, were mixed with Matrigel (in 100 μL 1×PBS plus 100 μL Matrigel (BD Biosciences)) and injected s.c. into the right flank of mice. After xenografts reached the size of about 100 mm^3, vehicle (10% beta cyclodextrin) or JQ1 (Sigma-Aldrich) at 50 mg/kg body weight was administered by i.p. injection 5 days a week. For studies with tumors treated with JQ1 and AKT inhibitor GDC-0068, C4-2 cells (5×10^6) infected with lentivirus expressing empty vector (EV) or HA-SPOP-F133V mutant were mixed with Matrigel (in 100 μL 1×PBS plus 100 μL Matrigel (BD Biosciences)) and injected s.c. into the right flank of mice. […] Growth in tumor volume was measured in a blinded fashion using digital caliper, and tumor volumes were estimated using the formula (L×W2)/2, where L is length of tumor and W is width. The volumes of tumors were compared, and P values were determined by a two-tailed Student's t test. […]
# [6] = test system: SPOP and BRD2/3/4; assay: Western blot, co-IP and in vivo ubiquitination assay in 293T cells; format: cell-based, human; settings: MG132 20 μM, 8 hours
# Description: To immunoprecipitate the ectopically expressed FLAG-tagged proteins, transfected cells were lysed 24 hours post-transfection in BC100 buffer. The whole-cell lysates were immunoprecipitated with the monoclonal anti-FLAG antibody-conjugated M2 agarose beads (Sigma-Aldrich) at 4° C. overnight. After three washes with lysis buffer, followed by two washes with BC100 buffer, the bound proteins were eluted using FLAG-Peptide (Sigma-Aldrich) prepared in BC100 for 3 hours at 4° C. The eluted protein sample was resolved by SDS-PAGE. To immunoprecipitate the endogenous proteins, cells were lysed with 1× cell lysis buffer (Cell Signaling Technology), and the lysate was centrifuged. The supernatant was precleared with protein A/G beads (Sigma-Aldrich) and incubated with the indicated antibody and protein A/G beads at 4° C. overnight. Beads were washed five times with lysis buffer and resuspended in sample buffer and analyzed by SDS-PAGE.
# as §1
# For the in vivo ubiquitination assay, C4-2 cells were transfected with plasmids for HA-Ub, FLAG-BRD4, and other indicated proteins. C ells were treated with 20 μM MG132 for 8 hours before being harvested and lysed with lysis buffer (50 mM Tris-HCl, pH 7.5, 150 mM NaCl, 1% NP40, 0.5% sodium deoxycholate, 1× protease inhibitor cocktail (PIC)). The lysate was subjected to co-immunoprecipitation using anti-FLAG-conjugated agarose beads as described in the Co-IP assay.
# [7] = test system: BRD4; assay: Western blot of BRD4 protein in PC-3 cells; format: cell-based, human; settings: MG132, 8 h
# Description: as §3
# [8] = test system: BRD4; assay: Western blot of BRD4 protein, ubiquitination and half-life in DU145 cells; format: cell-based, human
# Description: Co-Immunoprecipitation (Co-IP) Cells were harvested and lysed by IP buffer (50 mM Tris-HCl, pH 7.4, 150 mM NaCl, 1% Triton X-100, 1% sodium deoxycholate and 1% protease inhibitor cocktails) on ice for more than 15 minutes. Cell lysate was centrifuged for 15 minutes at 13,000 rpm at 4° C., and the supernatant was incubated with primary antibodies and protein A/G agarose beads (Thermo Fisher Scientific) with rotating at 4° C. overnight. The next day, the pellet was washed at least six times with 1×IP buffer on ice, and then subjected to western blotting analysis. Western Blotting
# as §3
# [9] = DU145 cells, PD0332991 2 μM, 24 hours
# [10] = DU145 cells, PD0332991 with JQ1, 24 hours
structure (smiles),measurement,setting,value
CC(C)C[C@H](NC(=O)[C@H](Cc1ccccc1)NC(=O)c1cnccn1)B(O)O [Bortezomib],BRD2/3/4 protein level,[1],increased
CC(C)NC[C@@H](C(=O)N1CCN(c2ncnc3c2[C@H](C)C[C@H]3O)CC1)c1ccc(Cl)cc1 [GDC-0068],"SPOP mutation-conferred resistance to BET inhibitor, cells in culture",[2],completely overcame
same,SPOP mutation-induced activation of AKT downstream pathways,"[3]; SPOP-F133V C4-2 cells, GDC-0068 1 μM, Western blot",abolished
same,antitumor efficacy,[4],effective antitumor efficacy
same,"SPOP mutation-conferred resistance to BET inhibitor, tumors in mice",[5],completely overcame
CC(C)C[C@@H](C=O)NC(=O)[C@H](CC(C)C)NC(=O)[C@H](CC(C)C)NC(=O)OCc1ccccc1 [MG132] (Cbz-Leu-Leu-Leu-aldehyde),decrease of BRD2/3/4 proteins by wild-type SPOP expression,[6],completely reversed
same,downregulation of BRD4 proteins caused by DUB3 knockdown,[7],reversed
same,PD0332991-induced decrease of BRD4 protein,"[8]; DU145 cells, 24 hours, co-treatment with MG132",completely impeded
same,decrease of BRD4 protein levels by DUB3 knockdown,"[8]; SPOP F133V-expressing DU145 cells, MG132, 8 hours",blocked
same,BRD2/3/4 protein level,[1],increased
NS(=O)(=O)OC[C@@H]1C[C@@H](n2ccc3c(N[C@H]4CCc5ccccc54)ncnc32)C[C@@H]1O [MLN4924],BRD2/3/4 protein level,[1],accumulation
"CC(=O)c1c(C)c2cnc(Nc3ccc(N4CCNCC4)cn3)nc2n(C2CCCC2)c1=O [PD0332991, 6-acetyl-8-cyclopentyl-5-methyl-2-[(5-piperazin-1-ylpyridin-2-yl)amino]pyrido[2,3-d]pyrimidin-7-one]",BRD4 protein expression in DUB3 knockdown cells,"[8]; DU145 cells, DUB3 shRNA, PD0332991 2 μM, 24 hours",little or no further reduction
same,BRD4 polyubiquitination,[8]; [9],increased
same,DUB3-induced upregulation of BRD4 protein,[8]; [9],completely blocked
same,DUB3-mediated deubiquitination of BRD4,[8]; [9],reversed
same,BRD4 protein,"[8]; DU145 cells, PD0332991 2 μM, time-dependent",decreased
same,JQ1-induced inhibition of BRD4 polyubiquitination,[8]; [10],almost completely reversed
same,JQ1-induced upregulation of BRD4 protein,[8]; [10],almost completely abolished
CC(/C=C/C(=O)NO)=C\[C@@H](C)C(=O)c1ccc(N(C)C)cc1 [trichostatin A],DUB3 protein and mRNA expression,"[3]; C4-2 cells, TSA 1 μM",increased
